Source: patent US20070208087A1, “Compounds, compositions and methods for the treatment of inflammatory diseases” (priority 2001, published 2007)
“And” between values parts separate entries of the source, which are not always exact repeats. Identical values can stand only once. Like-named read-outs stand apart in the source and are kept apart here.

How the values were obtained:
[1] = test system: TNF-α release from microglia; assay: TNF-α release from LPS/IFNγ stimulated microglia, TNF-α ELISA (Example 11); assay type: cell-based; conditions: 50 uM compound, TNF-α release, 10 ug LPS and 10 ng IFNγ, 24 hours; for % inhibition: individual replicates, 50 µM; for inhibition at 50 µM: Microglia, 24 h, read-out: Avg % Inhibition
Outline: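 Microglia pretreated 1 h with 50 μM bis-/tris-dihydroxyaryl compound, then stimulated with 10 μg/ml LPS + 10 ng/ml IFNγ for 24 h. Medium sampled, stored at −80°, diluted 1:50 and TNF-α measured by ELISA.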

[2] = test system: EOC 13.31 microglial cells; assay: NO release inhibition screen in LPS/IFNγ stimulated microglia, Griess reaction at 48 hours (Example 7); assay type: cell-based; conditions: for inhibition at 50 µM: Microglia, 48 h
Outline: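 EOC 13.31 microglia, confluent at 24 h, stimulated with 10 μg/ml LPS plus 10 ng/ml IFNγ in presence of 50 uM test compound. Nitric oxide release quantified by Griess reaction at 48 hours.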

Structure (SMILES) | % inhibition [1] | inhibition at 50 µM [1] [%] | μM NO release Avg ([2]; 50 uM + 10 μg/ml LPS/10 ng/ml IFNγ, 48 hours) [µM] | % inhibition ([2]; 50 uM + 10 μg/ml LPS/10 ng/ml IFNγ, 48 hours, single replicates, 50 µM) | inhibition of NO release, in words ([2]; 50 uM, LPS/IFNγ stimulated microglia) | inhibition at 50 µM ([2]; 50 uM + 10 μg/ml LPS/10 ng/ml IFNγ, 48 hours, read-out: Avg. % Inhibition) [%] | inhibition at 50 µM ([2]; 50 uM + 10 μg/ml LPS/10 ng/ml IFNγ, 48 hours, single replicates, read-out: % inhibition) [%]
O=C(N[C@@H]1CCCC[C@H]1NC(=O)c1ccc(O)c(O)c1)c1ccc(O)c(O)c1 (relative stereo) [Compound 26, N,N′-bis(3,4-dihydroxybenzoyl)-trans-1,2-diaminocyclohexane] | −12.44% and −21.81% and −16.22% | -16.8 | – | – | – | – | –
Oc1ccc(CNCc2ccc(O)c(O)c2)cc1O [Compound 73, bis(3,4-dihydroxybenzyl)amine] | −51.44% and −31.47% and −54.79% | -45.9 | 2.301 | 83.62% and 94.98% | effective inhibitors of NO release | 91.7 | 96.5
